Assays:
Type in all cases: functional
[1] = tested on: SF-295; test: Growth inhibition of human SF-295 cells incubated for 48 hrs by sulforhodamine B assay
[2] = tested on: CCRF-CEM; test: Growth inhibition of human CCRF-CEM cells assessed as growth percentage at 1 uM incubated for 48 hrs by sulforhodamine B assay relative to control; settings: read-out: Activity
[3] = tested on: 786-0; test: Growth inhibition of human 786-0 cells assessed as growth percentage at 0.1 uM incubated for 48 hrs by sulforhodamine B assay relative to control; settings: read-out: Activity
[4] = tested on: SN12C; test: Growth inhibition of human SN12C cells assessed as growth percentage at 10 uM incubated for 48 hrs by sulforhodamine B assay relative to control; settings: read-out: Activity
[5] = tested on: PC-3; test: Growth inhibition of human PC-3 cells assessed as growth percentage at 0.1 uM incubated for 48 hrs by sulforhodamine B assay relative to control; settings: read-out: Activity
[6] = tested on: SR; test: Growth inhibition of human SR cells assessed as growth percentage at 1 uM incubated for 48 hrs by sulforhodamine B assay relative to control; settings: read-out: Activity
[7] = tested on: SK-BR-3; test: Antiproliferative activity against human SK-BR-3 cells assessed as cell growth inhibition measured after 72 hrs by MTT assay
[8] = tested on: SR; test: Growth inhibition of human SR cells incubated for 48 hrs by sulforhodamine B assay; settings: for CC50: read-out: LC50 (the source's name)
[9] = tested on: SNB-19; test: Growth inhibition of human SNB-19 cells assessed as growth percentage at 0.1 uM incubated for 48 hrs by sulforhodamine B assay relative to control; settings: read-out: Activity
[10] = tested on: Hs-578T; test: Growth inhibition of human Hs-578T cells assessed as growth percentage at 10 uM incubated for 48 hrs by sulforhodamine B assay relative to control; settings: read-out: Activity
[11] = tested on: BT-549; test: Growth inhibition of human BT-549 cells assessed as growth percentage at 0.1 uM incubated for 48 hrs by sulforhodamine B assay relative to control; settings: read-out: Activity
[12] = tested on: SN12C; test: Growth inhibition of human SN12C cells assessed as growth percentage at 0.1 uM incubated for 48 hrs by sulforhodamine B assay relative to control; settings: read-out: Activity
[13] = tested on: LOX IMVI; test: Growth inhibition of human LOX IMVI cells assessed as growth percentage at 0.1 uM incubated for 48 hrs by sulforhodamine B assay relative to control; settings: read-out: Activity
[14] = tested on: DU-145; test: Growth inhibition of human DU-145 cells assessed as growth percentage at 0.01 uM incubated for 48 hrs by sulforhodamine B assay relative to control; settings: read-out: Activity
[15] = tested on: SW-620; test: Growth inhibition of human SW-620 cells assessed as growth percentage at 10 uM incubated for 48 hrs by sulforhodamine B assay relative to control; settings: read-out: Activity
[16] = tested on: NCI-H23; test: Growth inhibition of human NCI-H23 cells incubated for 48 hrs by sulforhodamine B assay
[17] = tested on: NCI-H460; test: Growth inhibition of human NCI-H460 cells incubated for 48 hrs by sulforhodamine B assay
[18] = tested on: MDA-MB-468; test: Growth inhibition of human MDA-MB-468 cells incubated for 48 hrs by sulforhodamine B assay
[19] = tested on: TK-10; test: Growth inhibition of human TK-10 cells assessed as growth percentage at 1 uM incubated for 48 hrs by sulforhodamine B assay relative to control; settings: read-out: Activity
[20] = tested on: NCI-H23; test: Growth inhibition of human NCI-H23 cells assessed as growth percentage at 1 uM incubated for 48 hrs by sulforhodamine B assay relative to control; settings: read-out: Activity
[21] = tested on: HT-29; test: Growth inhibition of human HT-29 cells assessed as growth percentage at 0.01 uM incubated for 48 hrs by sulforhodamine B assay relative to control; settings: read-out: Activity
[22] = tested on: M14; test: Growth inhibition of human M14 cells assessed as growth percentage at 100 uM incubated for 48 hrs by sulforhodamine B assay relative to control; settings: read-out: Activity
[23] = tested on: COLO 205; test: Growth inhibition of human COLO 205 cells incubated for 48 hrs by sulforhodamine B assay
[24] = tested on: PC-3; test: Growth inhibition of human PC-3 cells assessed as growth percentage at 10 uM incubated for 48 hrs by sulforhodamine B assay relative to control; settings: read-out: Activity
[25] = tested on: RXF 393; test: Growth inhibition of human RXF 393 cells assessed as growth percentage at 0.1 uM incubated for 48 hrs by sulforhodamine B assay relative to control; settings: read-out: Activity
[26] = tested on: HT-29; test: Growth inhibition of human HT-29 cells assessed as growth percentage at 100 uM incubated for 48 hrs by sulforhodamine B assay relative to control; settings: read-out: Activity
[27] = tested on: SK-MEL-2; test: Growth inhibition of human SK-MEL-2 cells assessed as growth percentage at 10 uM incubated for 48 hrs by sulforhodamine B assay relative to control; settings: read-out: Activity
[28] = tested on: NCI-H522; test: Growth inhibition of human NCI-H522 cells assessed as growth percentage at 0.01 uM incubated for 48 hrs by sulforhodamine B assay relative to control; settings: read-out: Activity
[29] = tested on: CCRF-CEM; test: Growth inhibition of human CCRF-CEM cells assessed as growth percentage at 100 uM incubated for 48 hrs by sulforhodamine B assay relative to control; settings: read-out: Activity
[30] = tested on: SF-268; test: Growth inhibition of human SF-268 cells assessed as growth percentage at 0.1 uM incubated for 48 hrs by sulforhodamine B assay relative to control; settings: read-out: Activity
[31] = tested on: M14; test: Growth inhibition of human M14 cells assessed as growth percentage at 10 uM incubated for 48 hrs by sulforhodamine B assay relative to control; settings: read-out: Activity
[32] = tested on: COLO 205; test: Growth inhibition of human COLO 205 cells assessed as growth percentage at 100 uM incubated for 48 hrs by sulforhodamine B assay relative to control; settings: read-out: Activity
[33] = tested on: IGROV-1; test: Growth inhibition of human IGROV-1 assessed as growth percent at 0.1 uM incubated for 48 hrs by sulforhodamine B assay relative to control; settings: read-out: Activity
[34] = tested on: OVCAR-3; test: Growth inhibition of human OVCAR-3 cells incubated for 48 hrs by sulforhodamine B assay; settings: for TGI: OVCAR-3; for CC50: OVCAR-3, read-out: LC50 (the source's name)
[35] = tested on: KM12; test: Growth inhibition of human KM12 cells assessed as growth percentage at 100 uM incubated for 48 hrs by sulforhodamine B assay relative to control; settings: read-out: Activity
[36] = tested on: T47D; test: Growth inhibition of human T47D cells assessed as growth percentage at 100 uM incubated for 48 hrs by sulforhodamine B assay relative to control; settings: read-out: Activity
[37] = tested on: RPMI-8226; test: Growth inhibition of human RPMI-8226 cells assessed as growth percentage at 1 uM incubated for 48 hrs by sulforhodamine B assay relative to control; settings: read-out: Activity
[38] = tested on: UACC-257; test: Growth inhibition of human UACC-257 cells incubated for 48 hrs by sulforhodamine B assay

Structure (SMILES): Nc1nc2[nH]c(CN3CCN(c4cc(Cl)cc(Cl)c4)CC3)c(CN3CCN(c4cc(Cl)cc(Cl)c4)CC3)c2c(=O)[nH]1
- GI50 [1]: 1820 nM
- TGI [1]: 3.9 µM
- growth at 1 µM [2]: 87%
- growth at 0.1 µM [3]: 93%
- growth at 10 µM [4]: 73.1%
- growth at 0.1 µM [5]: 96%
- growth at 1 µM [6]: 67%
- GI50 [7]: 3.22 µM
- GI50 ([8]; Homo sapiens, SR): 1460 nM
- TGI ([8]; Homo sapiens, SR): 4460 nM
- CC50 [8]: > 100 µM
- growth at 0.1 µM [9]: 91%
- growth at 10 µM [10]: 98.8%
- growth at 0.1 µM [11]: 92%
- growth at 0.1 µM [12]: 99%
- growth at 0.1 µM [13]: 99%
- growth at 0.01 µM [14]: 110%
- growth at 10 µM [15]: -16.3%
- GI50 [16]: 2030 nM
- TGI [16]: 3.96 µM
- TGI ([17]; Homo sapiens, NCI-H460): 3940 nM
- GI50 ([17]; Homo sapiens, NCI-H460, 48 h): 1960 nM
- TGI ([18]; Homo sapiens, MDA-MB-468): 3750 nM
- GI50 ([18]; Homo sapiens, MDA-MB-468, 48 h): 1720 nM
- growth at 1 µM [19]: 100%
- growth at 1 µM [20]: 103%
- growth at 0.01 µM [21]: 105%
- growth at 100 µM [22]: -54%
- GI50 [23]: 1690 nM
- TGI [23]: 3.56 µM
- growth at 10 µM [24]: 59.6%
- growth at 0.1 µM [25]: 89%
- growth at 100 µM [26]: -70%
- growth at 10 µM [27]: 108%
- growth at 0.01 µM [28]: 95%
- growth at 100 µM [29]: -30%
- growth at 0.1 µM [30]: 102%
- growth at 10 µM [31]: 79.7%
- growth at 100 µM [32]: -45%
- growth at 0.1 µM [33]: 105%
- TGI ([34]; Homo sapiens): 3380 nM
- GI50 ([34]; Homo sapiens, OVCAR-3, 48 h): 1810 nM
- CC50 ([34]; Homo sapiens): 6.28 µM
- growth at 100 µM [35]: -84%
- growth at 100 µM [36]: -44%
- growth at 1 µM [37]: 92%
- GI50 ([38]; Homo sapiens, UACC-257, 48 h): 2060 nM
- TGI ([38]; Homo sapiens, UACC-257, 48 h): 4760 nM

Structure (SMILES): CCCCCCCC(=O)Nc1nc2[nH]c(CN3CCN(Cc4cccc(F)c4)CC3)c(CN3CCN(Cc4cccc(F)c4)CC3)c2c(=O)[nH]1
- GI50 [1]: 1410 nM
- LC50 [1]: 5.79 µM
- TGI [1]: 2.85 µM
- growth at 1 µM [2]: -17%
- growth at 0.1 µM [3]: 92%
- growth at 10 µM [4]: -90.6%
- growth at 0.1 µM [5]: 96%
- growth at 1 µM [6]: -31%
- GI50 [7]: 3.91 µM
- GI50 [8]: 210 nM
- TGI [8]: 550 nM
- GI50 ([8]; Homo sapiens, SR): 208 nM
- TGI ([8]; Homo sapiens, SR): 548 nM
- CC50 ([8]; Homo sapiens, SR): > 100 µM
- growth at 0.1 µM [9]: 98%
- growth at 10 µM [10]: -49.4%
- growth at 0.1 µM [11]: 85%
- growth at 0.1 µM [12]: 98%
- growth at 0.1 µM [13]: 94%
- growth at 0.01 µM [14]: 100%
- growth at 10 µM [15]: -78.5%
- GI50 [16]: 1860 nM
- LC50 (50% lethal concentration) [16]: 8.02 µM
- TGI [16]: 3.86 µM
- GI50 ([17]; 48 h): 380 nM
- LC50 ([17]; Homo sapiens, NCI-H460): 4.31 µM
- TGI ([17]; Homo sapiens, NCI-H460): 1300 nM
- GI50 ([17]; Homo sapiens, NCI-H460, 48 h): 383 nM
- GI50 ([18]; 48 h): 480 nM
- LC50 (concentration killing 50% of cells) ([18]; Homo sapiens, MDA-MB-468): 5.31 µM
- TGI ([18]; Homo sapiens, MDA-MB-468): 1840 nM
- GI50 ([18]; Homo sapiens, MDA-MB-468, 48 h): 477 nM
- growth at 1 µM [19]: 94%
- growth at 1 µM [20]: 92%
- growth at 0.01 µM [21]: 96%
- growth at 100 µM [22]: -73%
- GI50 [23]: 1400 nM
- TGI [23]: 2.82 µM
- CC50 ([23]; read-out: LC50 (the source's name)): 5.68 µM
- growth at 10 µM [24]: -95.1%
- growth at 0.1 µM [25]: 100%
- growth at 100 µM [26]: -68%
- growth at 10 µM [27]: -66.9%
- growth at 0.01 µM [28]: 106%
- growth at 100 µM [29]: 8%
- growth at 0.1 µM [30]: 95%
- growth at 10 µM [31]: -91.3%
- growth at 100 µM [32]: -94%
- growth at 0.1 µM [33]: 95%
- GI50 ([34]; 48 h): 780 nM
- TGI ([34]; Homo sapiens): 2170 nM
- GI50 ([34]; Homo sapiens, OVCAR-3, 48 h): 781 nM
- CC50 ([34]; Homo sapiens): 5.28 µM
- growth at 100 µM [35]: -47%
- growth at 100 µM [36]: -68%
- growth at 1 µM [37]: 13%
- GI50 ([38]; 48 h): 200 nM
- TGI ([38]; 48 h): 460 nM
- GI50 ([38]; Homo sapiens, UACC-257, 48 h): 203 nM
- LC50 (concentration killing 50% of cells) ([38]; Homo sapiens, UACC-257, 48 h): 1090 nM
- TGI ([38]; Homo sapiens, UACC-257, 48 h): 456 nM

— ChEMBL document CHEMBL4673219, “Novel 5,6-disubstituted pyrrolo[2,3-d]pyrimidine derivatives as broad spectrum antiproliferative agents: Synthesis, cell based assays, kinase profile and molecular docking study” (Bioorg Med Chem, 2018)
